Broadly, the IC50 is the concentration needed to halve the response being measured.

Structures are written as SMILES.

Results on 17 molecules are retold here after patent US11498928B2, “Macrocyclic spiroethers as Mcl-1 inhibitors” (ASCENTAGE PHARMA (SUZHOU) CO., LTD., priority 2019, dated 2022).

Assay [1] concerns the target T1, Mcl-1 protein (residues 171-323) (Homo sapiens, UniProt Q07820).
T1 construct: Tag-free Mcl-1 protein (residues 171-323) was used in the FP assay
Description: Inhibition of Mcl-1 by fluorescence polarization (FP) competitive binding assay with FAM-Bid tracer. The note with it: 2 nM FAM-Bid, 20 nM Mcl-1, 30 min. In outline:
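Tag-free Mcl-1 (20 nM) with 2 nM FAM-Bid peptide in PBS, 0.01% BGG, 0.01% Triton X-100, 5% DMSO, 30 min at room temperature. FP read at Ex 485/Em 528 nm. IC50 from 10-point curves normalised to DMSO and no-protein controls.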

The next assay relates to OPM-2 cells. Description: Cell viability assay (OPM-2 cells), CCK-8. The class given is cell-based. To be noted: 5% FBS. In a few lines:
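OPM-2 myeloma cells (20000/well) exposed to serially diluted compound for 24 h at 37 °C, 5% CO2, then incubated 4 h with CCK-8 and read at 450 nm. Readings normalized to vehicle; IC50 from nonlinear regression.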

The subject of the next assay is NCI-H929 cells. The assay can be described thus: Cell viability assay (NCI-H929 cells), CCK-8. The class given is cell-based. To be noted: 5% FBS. In a few lines: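 NCI-H929 cells from ATCC were seeded at 20000 cells/well in 95 μL of culture medium in 96-well plates and grown for 4 hrs. Compounds, serially diluted in DMSO and further diluted in medium, were added as 5 μL, and cells were incubated for 24 hrs at 37° C. with 5% CO2. Viability was measured with CCK-8.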

T1 sequence (Q07820 171-323): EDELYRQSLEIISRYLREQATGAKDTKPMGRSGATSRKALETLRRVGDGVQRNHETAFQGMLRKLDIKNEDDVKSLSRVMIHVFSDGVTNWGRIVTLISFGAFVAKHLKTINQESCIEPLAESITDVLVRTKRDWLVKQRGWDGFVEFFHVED

Consider `CO[C@@]1(CN2CCN(C3COC3)CC2)C2=C[C@@H](C2)[C@H](C)[C@@H](C)S(=O)(=O)NC(=O)c2ccc3c(c2)N(C[C@@H]2CC[C@H]21)C[C@@]1(CCCc2c1ccc(Cl)c2F)CO3` [compound 50], for which the IC50 in assay [1] worked out at 11 nM; in the assay with OPM-2 cells (Homo sapiens, OPM-2, 24 h) it was 28 nM; with NCI-H929 cells (Homo sapiens, NCI-H929, 24 h), 11 nM.

In the case of `CO[C@H]1C2=CC(C)(C2)[C@H](C)CS(=O)(=O)NC(=O)c2ccc3c(c2)N(C[C@@H]2CC[C@H]21)C[C@@]1(CCCc2cc(Cl)ccc21)CO3` (single isomer, unassigned) [Cpd. No. 18 (Isomer 2)], the IC50 was 4.9 nM in assay [1], 1210 nM in the assay with OPM-2 cells (24 h) and 440 nM in the assay on NCI-H929 cells (24 h).

Turning to `CO[C@@H]1C2=CC(CCS(=O)(=O)NC(=O)c3ccc4c(c3)N(C[C@@H]3CC[C@H]31)C[C@@]1(CCCc3cc(Cl)ccc31)CO4)C2` (single isomer, unassigned) [Cpd. No. 4 (Isomer 1)], the IC50 in assay [1] came out at 8.3 nM; with OPM-2 cells (24 h), 5720 nM; in the assay on NCI-H929 cells (24 h), 4200 nM.

`C[C@@H]1[C@@H](C)S(=O)(=O)NC(=O)c2ccc3c(c2)N(C[C@@H]2CC[C@H]2[C@@H](OCCN2CCN(C)CC2)C2=C[C@H]1C2)C[C@@]1(CCCc2c1ccc(Cl)c2F)CO3` [compound 86, (1S,11′R,12′S,13′R,16′R,16a′R,18a′R,E)-6-chloro-5-fluoro-11′,12′-dimethyl-16′-(2-(4-methylpiperazin-1-yl)ethoxy)-3,4,12′,13′,16′,16a′,17′,18′,18a′,19′-decahydro-1′H,2H,3′H, 11′H-spiro[naphthalene-1,2′-[5,7]etheno[13,15]methanocyclobuta[i][1,4]oxazepino[3,4-f][1]thia[2,7]diazacyclohexadecin]-8′(9′H)-one 10′,10′-dioxide]: the IC50 came to 10 nM in assay [1]; 64 nM in the assay with OPM-2 cells (Homo sapiens, OPM-2, 24 h); 3.8 nM in the assay with NCI-H929 cells (Homo sapiens, NCI-H929, 24 h).

In the case of `CO[C@H]1C2=CC(C2)CC(C)S(=O)(=O)NC(=O)c2ccc3c(c2)N(C[C@@H]2CC[C@H]21)C[C@@]1(CCCc2cc(Cl)ccc21)CO3` (single isomer, unassigned) [11 (Isomer 2)], the IC50 in assay [1] was determined as 6 nM; in the assay with OPM-2 cells (24 h) it was 3860 nM; with NCI-H929 cells (24 h), 2240 nM.

For the molecule `CO[C@@]1(CN2CCN(S(C)(=O)=O)CC2)C2=C[C@@H](C2)[C@H](C)[C@@H](C)S(=O)(=O)NC(=O)c2ccc3c(c2)N(C[C@@H]2CC[C@H]21)C[C@@]1(CCCc2c1ccc(Cl)c2F)CO3` [compound 38, (1S,11′R,12′S,13′R,16′R,16a′R,18a′R,E)-6-chloro-5-fluoro-16′-methoxy-1′,12′-dimethyl-16′-((4-(methylsulfonyl)piperazin-1-yl)methyl)-3,4,12′,13′,16′,16a′,17′,18′,18a′,19′-decahydro-1′H,2H,3′H,11′H-spiro[naphthalene-1,2′-[5,7]etheno[13,15]methanocyclobuta[i][1,4]oxazepino[3,4-f][1]thia[2,7]diazacyclohexadecin]-8′(9′H)-one 10′,10′-dioxide], the half-inhibitory concentration (IC50) in assay [1] was determined as 15 nM; in the assay with OPM-2 cells (Homo sapiens, OPM-2, 24 h), 30 nM; in the assay with NCI-H929 cells (Homo sapiens, NCI-H929, 24 h), 50 nM.

Consider `COCCN[C@H]1C2=C[C@@H](C2)[C@H](C)[C@@H](C)S(=O)(=O)NC(=O)c2ccc3c(c2)N(C[C@@H]2CC[C@H]21)C[C@@]1(CCCc2c1ccc(Cl)c2F)CO3` [compound 58, (1S,11′R,12′S,13′R,16′R,16a′R,18a′R)-6-chloro-5-fluoro-16′-((2-methoxyethyl)amino)-11′,12′-dimethyl-3,4,12′,13′,16′,16a′,17′,18′,18a′,19′-decahydro-1′H,2H,3′H, 11′H-spiro[naphthalene-1,2′-[5,7]etheno[13,15]methanocyclobuta[i][1,4]oxazepino[3,4-f][1]thia[2,7]diazacyclohexadecin]-8′(9′H)-one 10′,10′-dioxide], for which the 50% inhibitory concentration (IC50) is 19 nM in assay [1]; 57 nM with OPM-2 cells (Homo sapiens, OPM-2, 24 h); 18 nM in the assay with NCI-H929 cells (Homo sapiens, NCI-H929, 24 h).

Consider `CO[C@H]1C2=CC3(C2)CN(C3)S(=O)(=O)NC(=O)c2ccc3c(c2)N(C[C@@H]2CC[C@H]21)C[C@@]1(CCCc2cc(Cl)ccc21)CO3` [compound 31, (1S,16′R,16a′R,18a′R)-6-chloro-16′-methoxy-3,4,16′,16a′,17′,18′,18a′,19′-octahydro-1′H,2H,3′H,12′H-spiro[naphthalene-1,2′-[5,7]etheno[11,13:13,15]dimethanocyclobuta[i][1,4]oxazepino[3,4-f][1]thia[2,7,16]triazacyclohexadecin]-8′(9′H)-one 10′,10′-dioxide], for which the IC50 in assay [1] was found to be 11 nM; in the assay on OPM-2 cells (Homo sapiens, OPM-2, 24 h), 9280 nM; in the assay on NCI-H929 cells (Homo sapiens, NCI-H929, 24 h), 9700 nM.

With `CO[C@H]1C2=C[C@H](C2)[C@H](C)CS(=O)(=O)NC(=O)c2ccc3c(c2)N(C[C@@H]2CC[C@H]21)C[C@@]1(CCCc2c1ccc(Cl)c2F)CS3` (single isomer, unassigned) [24 (isomer 2)], the IC50 was determined as 4.8 nM in assay [1]; 3300 nM in the assay on OPM-2 cells (Homo sapiens, OPM-2, 24 h); 4300 nM with NCI-H929 cells (Homo sapiens, NCI-H929, 24 h).

In the case of `CO[C@H]1C2=CC(C2)C(C)(C)CS(=O)(=O)NC(=O)c2ccc3c(c2)N(C[C@@H]2CC[C@H]21)C[C@@]1(CCCc2cc(Cl)ccc21)CO3` (single isomer, unassigned) [Cpd. No. 5 (Isomer 1)], the IC50 was determined as 4.8 nM in assay [1], 411 nM in the assay on OPM-2 cells (24 h) and 120 nM in the assay on NCI-H929 cells (24 h).

For the molecule `C[C@@H]1[C@@H](C)S(=O)(=O)NC(=O)c2ccc3c(c2)N(C[C@@H]2CC[C@H]2[C@@H](OCC2CCN(C)CC2)C2=C[C@H]1C2)C[C@@]1(CCCc2c1ccc(Cl)c2F)CO3` [compound 71], the half-maximal inhibitory concentration (IC50) amounted to 13 nM in assay [1]; 81 nM with OPM-2 cells (Homo sapiens, OPM-2, 24 h); 6 nM with NCI-H929 cells (Homo sapiens, NCI-H929, 24 h).

Consider `CO[C@H]1C2=CC(C2)CC(C)S(=O)(=O)NC(=O)c2ccc3c(c2)N(C[C@@H]2CC[C@H]21)C[C@@]1(CCCc2cc(Cl)ccc21)CO3` (single isomer, unassigned) [11 (Isomer 1)], for which the IC50 is 6.5 nM in assay [1], 87 nM in the assay on OPM-2 cells (24 h) and 86 nM with NCI-H929 cells (24 h).

For `CO[C@@]1(CN2CCN(C3CCOCC3)CC2)C2=C[C@@H](C2)[C@H](C)[C@@H](C)S(=O)(=O)NC(=O)c2ccc3c(c2)N(C[C@@H]2CC[C@H]21)C[C@@]1(CCCc2c1ccc(Cl)c2F)CO3` [compound 36], the IC50 in assay [1] is 13 nM; with OPM-2 cells (Homo sapiens, OPM-2, 24 h), 35 nM; in the assay with NCI-H929 cells (Homo sapiens, NCI-H929, 24 h) it was 4.4 nM.

Consider `CO[C@H]1C2=C[C@H](C2)[C@H](C)N(C[C@@H]2CCCO2)S(=O)(=O)NC(=O)c2ccc3c(c2)N(C[C@@H]2CC[C@H]21)C[C@@]1(CCCc2cc(Cl)ccc21)CO3` (single isomer, unassigned) [30 (isomer 1)], for which the IC50 in assay [1] amounted to 6.2 nM; in the assay with OPM-2 cells (Homo sapiens, OPM-2, 24 h) it was 2310 nM; in the assay on NCI-H929 cells (Homo sapiens, NCI-H929, 24 h), 2900 nM.

For `C[C@@H]1[C@@H](C)S(=O)(=O)NC(=O)c2ccc3c(c2)N(C[C@@H]2CC[C@H]2[C@@H](N(C)C)C2=C[C@H]1C2)C[C@@]1(CCCc2c1ccc(Cl)c2F)CO3` [compound 57, (1S,11′R,12′S,13′R,16′R,16a′R,18a′R)-6-chloro-16′-(dimethylamino)-5-fluoro-11′,12′-dimethyl-3,4,12′,13′,16′,16a′,17′,18′,18a′,19′-decahydro-1′H,2H,3′H,11′H-spiro[naphthalene-1,2′-[5,7]etheno[13,15]methanocyclobuta[i][1,4]oxazepino[3,4-f][1]thia[2,7]diazacyclohexadecin]-8′(9′H)-one 10′,10′-dioxide], the IC50 stood at 13 nM in assay [1]; 36 nM in the assay on OPM-2 cells (Homo sapiens, OPM-2, 24 h); 43 nM in the assay on NCI-H929 cells (Homo sapiens, NCI-H929, 24 h).

For the molecule `C[C@@H]1[C@@H](C)S(=O)(=O)NC(=O)c2ccc3c(c2)N(C[C@@H]2CC[C@H]2[C@@H](OCCN2CCC(F)(F)CC2)C2=C[C@H]1C2)C[C@@]1(CCCc2c1ccc(Cl)c2F)CO3` [compound 95], the IC50 in assay [1] turned out to be 23 nM; in the assay with OPM-2 cells (Homo sapiens, OPM-2, 24 h) it was 42 nM; with NCI-H929 cells (Homo sapiens, NCI-H929, 24 h), 44 nM.

Consider `C[C@@H]1[C@@H](C)S(=O)(=O)NC(=O)c2ccc3c(c2)N(C[C@@H]2CC[C@H]2[C@@H](OCc2nccn2C)C2=C[C@H]1C2)C[C@@]1(CCCc2c1ccc(Cl)c2F)CO3` [compound 63, (1S,11′R,12′S,13′R,16′R,16a′R,18a′R,E)-6-chloro-5-fluoro-11′,12′-dimethyl-16′-((1-methyl-1H-imidazol-2-yl)methoxy)-3,4,12′,13′,16′,16a′,17′,18′,18a′,19′-decahydro-1′H,2H,3′H, 11′H-spiro[naphthalene-1,2′-[5,7]etheno[13,15]methanocyclobuta[i][1,4]oxazepino[3,4-f][1]thia[2,7]diazacyclohexadecin]-8′(9′H)-one 10′,10′-dioxide], for which the IC50 turned out to be 13 nM in assay [1]; 88 nM with OPM-2 cells (Homo sapiens, OPM-2, 24 h); 98 nM in the assay on NCI-H929 cells (Homo sapiens, NCI-H929, 24 h).
